Data as given in patent US20070110734A9, “Methods and compositions using cellular asialodeterminants and glycoconjugates for targeting cells to tissues and organs” (Department of Veterans Affairs, Rehabilitation R&D Service, priority 2002, published 2007).

How the values were obtained:
Design in all cases: species or system NOD-SCID mice
[1] = test system: human CD34+ (hCD34+) peripheral blood stem cells; test: In vivo trafficking of 111In-labeled human CD34+ stem cells (HSC) after glycoprotein infusion, gamma camera imaging; details: for % Infused Cells in Liver/Spleen: 5.75×10^6 HSC preceded by 5.5 mg orosomucoid i.v.; for organ localization of infused hematopoietic (CD34+) stem cells, in words: cells preceded by infusion of the protein, jugular vein, immunodeficient mice
Experimental: Intravenous cannulas were placed into the external jugular vein of NOD-SCID mice under anesthesia (Institutional Animal Care and Use Committee protocol #AM87046-07) to enable the efficient delivery of ^111In-labeled stem cells i.v. Tylenol elixir was administered by mouth after recovery from anesthesia. Briefly radiolabeled CD34+ cells were taken up in 100-250 ul of 5% human plasma albumin in saline and injected into the cannula and then flushed with 50 ul of the albumin-saline. The mice were imaged by nuclear medicine.
Mice: NOD-SCID, female mice (Nonobese diabetic/LtSz-scid/scid) were obtained from the Jackson Laboratory, Bar Harbor, Me. at 1-2 months of age. These animals were maintained in microisolator cages in a special isolator room. The air was HEPA filtered, and the animals were changed in a laminar flow hood within the facility. All food, bedding, and water was sterilized. […] See, e.g. Hogan, et al., Biology of Blood & Marrow Transplantation 3:236-246 (1997); Noort, et al., Bone Marrow Transplantation 22 Suppl 1:S58-60 (1998).
(§1) ^111Indium Oxine Labeling Procedure: ^111In-oxine labeling of adult human CD34+ or mesenchymal stem cells (hMSCs) was performed using a modification of the Amersham Healthcare Procedure for labeling autologous leukocytes.
(§2) Imaging procedures: Nuclear Medicine. NOD-SCID mice were anesthetized using rodent anesthesia cocktail. Once anesthetized, the mice were placed on a foam hemi-cylindrical mouse positioning device (MPD) and covered with a tube sock. The MPD allows better visual separation of the lungs and liver as compared to placing the mouse on a flat surface. The foam on which the mouse was placed, and the tube sock covering maintained a comfortable temperature permitting longer imaging without additional anesthesia. The MPD was placed on a narrow table between the dual heads of a Siemens E.Cam Gamma Camera and imaged statically or dynamically in 2-D or SPECT. ^57Co-Spot Marker is used to mark anatomic positions (nose, tail, cannula, etc.). The data was analyzed using a Siemens ICON system for regions of interest or percent of injected dose (e.g. liver, spleen, heart).
(§3) Gamma camera imaging using a Siemens E. Cam dual head gamma camera monitored the in vivo trafficking patterns of all human stem cells described in the following examples. Mice were placed on a Mouse Positioning Device (MPD) and placed between the detectors on the imaging platform.
5.75×10^6 111In-labeled human CD34+ (hCD34+) peripheral blood stem cells were administered intravenously (i.v.) via an external jugular vein cannula to 2 month old, NOD-SCID, female mice (Non-obese diabetic/LtSz-scid/scid) obtained from the Jackson Laboratory, Bar Harbor, Me. The radiolabeled CD34+ stem cells were administered after pretreatment of the mouse with 3.3 mg of asialoorosomucoid (ASO) i.v. The in vivo trafficking patterns were followed by gamma camera imaging using a Siemens E.Cam dual head gamma camera from immediately after injection up to 36 hr postinfusion. Human CD34+ were isolated from apheresis stem cell collection products derived from deceased cancer patients. They were purified to 95-99% purity using antibody conjugated to CD34 conjugated to magnetics beads (MACS) separation columns; Miltenyi Biotec, Auburn, Calif. and cryopreserved.
5.75×10^6 111In-labeled human CD34+ (hCD34+) peripheral blood stem cells were administered intravenously (i.v.) via an external jugular vein cannula to 2 month old, NOD-SCID, female mice (Non-obese diabetic/LtSz-scid/scid) obtained from the Jackson Laboratory, Bar Harbor, Me. The radiolabeled CD34+ stem cells were administered after pretreatment of the mouse with 5.5 mg of orosomucoid (O) i.v.
The preparation and procedures set forth in Example I were repeated. […]

[2] = test system: human mesenchymal stem cells (MSC); test: In vivo trafficking of 111In-labeled human mesenchymal stem cells (MSC) after glycoprotein infusion, gamma camera imaging; details: for % Infused Cells in Heart: 0.56×10^6 MSC preceded by 11 mg orosomucoid i.v.
Experimental: Human mesenchymal stem cells (hMSCs; PT-2501) obtained through a FDA monitored paid bone marrow donor program were purchased from Poietics Technologies, BioWhittaker (Walkerville, Md.). The cells were thawed according to manufacturer recommendations, resuspended, and radiolabeled in Mesenchymal Stem Cell Basal Medium (MSCBM).
as §1, §2, §3
MSC were obtained from BioWhittaker, (Poietics Division, cryopreserved PT-2501 >750,000 cells per ampoule) and labeled with ^111In as in previous examples, except that the MSC were labeled, washed, and injected in Basal Stem Cell Medium (Poietics) containing 5% human serum albumin (HSA). 0.56×10^6 111In labeled, human mesenchymal stem cells (MSC) were administered via an implanted Da Vinci Microport Vascular System cannula in the external jugular vein of a two-month old, female NOD-SCID mouse in 0.21 ml of basal stem cell medium containing 5% human serum albumin (HSA). Immediately prior to administration of MSC, 11.0 mg of orosomucoid was administered i.v. in 0.2 ml.
0.56×10^6 “In-labeled, MSC were administered i.v. in 0.21 ml of basal stem cell medium containing 5% human serum albumin (HSA). Prior to administration of MSC, 0.1 ml containing 4.3 mg of ASO, followed by 0.1 ml containing 5.5 mg orosomucoid were administered i.v. The ASO, orosomucoid and MSC were administered via an implanted Da Vinci Microport Vascular system cannula in the external jugular vein of a two-month old, female NOD-SCID mouse.

[3] = test system: human CD34+ (hCD34+) peripheral blood stem cells; test: In vivo trafficking of 111In-labeled human CD34+ stem cells (HSC) after glycoprotein infusion, gamma camera imaging; details: 0.5×10^6 HSC preceded by 11 mg orosomucoid i.v.

## alpha-(1)-acid glycoprotein [Orosomucoid]
[1]; 5.75×10^6 HSC after 5.5 mg orosomucoid i.v., up to 36 hours
  111In-labeled cells in the region of the heart, in words: No ^111In-labeled cells were found in the region of the heart
[1]; 1.5 hr
  % Infused Cells in Liver/Spleen: 74 ± 4% at 1.5 hr
[1]; 1.5 hr, listed as orosomucoid
  % Infused Cells in Liver/Spleen: 74±4%
[1]; 24 hr
  % Infused Cells in Liver/Spleen: 63 ± 1% at 24 hr
[1]; 24 hr, listed as O
  % Infused Cells in Liver/Spleen: 63.6%
[1]; 24 hr, listed as orosomucoid
  % Infused Cells in Liver/Spleen: 63±1%
[1]; immediately after infusion (0 hr)
  % Infused Cells in Liver/Spleen: 74 ± 3% at 0 hr
[1]; immediately after infusion (0 hr), listed as O
  % Infused Cells in Liver/Spleen: 76.3%
[1]; immediately after infusion (0 hr), listed as orosomucoid
  % Infused Cells in Liver/Spleen: 74±3%
[1]; listed as O
  organ localization of infused hematopoietic (CD34+) stem cells, in words: migrated immediately to the liver/spleen area
[1]; listed as orosomucoid (O)
  organ localization of infused hematopoietic (CD34+) stem cells, in words: localize in the liver
[2]; 0 hr
  % Infused Cells in Heart: 68 ± 7% at 0 hr
[2]; 0 hr, listed as orosomucoid
  % Infused Cells in Heart: 68±7%
[2]; 1 hr
  % Infused Cells in Heart: 61 ± 3% at 1 hr
[2]; 1 hr, listed as orosomucoid
  % Infused Cells in Heart: 61±3%
[2]; cells preceded by infusion of the protein, jugular vein, immunodeficient mice
  organ localization of infused mesenchymal stem cells, in words: predominantly localize in the heart
[3]; 1 hr
  % of infused cells in the liver region: 40±3%
[3]; immediately after infusion
  % of infused cells in the liver and spleen: 43±2%
